pIC50: −log10 of the molar value. ≈ marks a conversion by molar mass, not a printed value.
Test system: KB
Assay: Cytotoxicity against human KB cells
Assay type: functional, cell-based

Compound	IC50 [µg/mL]
COc1ccc(-c2oc3c(OC)c(OC)c(OC)c(O)c3c(=O)c2OC)cc1O	0.04 (≈ 0.0989 µM)
COc1ccc(-c2oc3c(OC)c(OC)c(OC)c(O)c3c(=O)c2OC)cc1OC	6 (≈ 14.3 µM)
COc1cc(-c2oc3c(OC)c(OC)c(OC)c(O)c3c(=O)c2O)cc(O)c1OC	2 (≈ 4.76 µM)
COc1ccc(-c2oc3c(OC)c(OC)c(OC)c(O)c3c(=O)c2O)cc1O	6 (≈ 15.4 µM)
COc1ccc(-c2oc3c(OC)c(OC)c(OC)c(O)c3c(=O)c2O)cc1OC	0.1 (≈ 0.247 µM)
COc1c(OC)c(O)c2c(=O)c(OC)c(-c3ccc(O)c(O)c3)oc2c1OC	0.44 (≈ 1.13 µM)
COc1cc(-c2oc3c(OC)c(OC)c(OC)c(O)c3c(=O)c2OC)ccc1O	0.2 (≈ 0.495 µM)
COc1ccc(-c2oc3cc(O)c(OC)c(O)c3c(=O)c2OC)cc1O [CENTAUREIDIN]	0.27 (≈ 0.749 µM)
COc1cc(-c2oc3c(OC)c(OC)c(OC)c(O)c3c(=O)c2OC)cc(O)c1OC [DIGICITRIN]	2 (≈ 4.6 µM)

Test system: not listed separately
Assay: Inhibition of tubulin assembly

pIC50	Compound
4.92	COc1ccc(-c2oc3c(OC)c(OC)c(OC)c(O)c3c(=O)c2OC)cc1O
5.52	COc1ccc(-c2oc3cc(O)c(OC)c(O)c3c(=O)c2OC)cc1O [CENTAUREIDIN]
5.40	CC[C@]1(O)C[C@@H]2CN(CCc3c([nH]c4ccccc34)[C@@](C(=O)OC)(c3cc4c(cc3OC)N(C)[C@H]3[C@@](O)(C(=O)OC)[C@H](OC(C)=O)[C@]5(CC)C=CCN6CC[C@]43[C@@H]65)C2)C1 [VINBLASTINE]

— ChEMBL document CHEMBL1148049, “Antimitotic and cytotoxic flavonols from Zieridium pseudobtusifolium and Acronychia porteri” (J Nat Prod, 1994)
